Source: ChEMBL document CHEMBL1157622, “Synthesis and antiproliferative evaluation of certain indolo[3,2-c]quinoline derivatives” (Bioorg Med Chem, 2010)
Activity calls are given as the source filed them. The rule behind the calls is not given here.

Tests used:
[1] = system: A549; experiment: Antiproliferative activity against human A549 cells by MTT assay; format: functional, cell-based
[2] = system: PC-3; experiment: Antiproliferative activity against human PC3 cells by MTT assay; format: functional, cell-based
[3] = system: HeLa; experiment: Antiproliferative activity against human HeLa cells by MTT assay; format: functional, cell-based
[4] = Antiproliferative activity against human SKHep cells by MTT assay; format: functional, cell-based
[5] = system: Detroit 551; experiment: Antiproliferative activity against human Detroit 551 cells by MTT assay; format: cell-based
[6] = system: PC-3; experiment: Cell cycle arrest in human PC3 cells by accumulation at S phase at 0.1 uM after 48 hrs by propidium iodide staining-based flow cytometry (Rvb=11.2%); format: functional
[7] = system: PC-3; experiment: Induction of apoptosis in human PC3 cells assessed as PARP cleavage at 0.1 uM after 48 hrs by Western blot; format: functional, cell-based
[8] = molecular target: DNA topoisomerase 2-alpha (Homo sapiens) (UniProt P11388); experiment: Inhibition of DNA topoisomerase 2-mediated unwinding of supercoiled pBR322 DNA
[9] = system: PC-3; experiment: Cell cycle arrest in human PC3 cells by accumulation at subG1 phase at 0.1 uM after 48 hrs by propidium iodide staining-based flow cytometry (Rvb=0.8%); format: functional
[10] = molecular target: T1, DNA topoisomerase 1 (Homo sapiens) (UniProt P11387); experiment: Inhibition of topoisomerase 1-mediated unwinding of supercoiled plasmid DNA at 0.1 to 1.0 uM
T1 sequence (whole entry): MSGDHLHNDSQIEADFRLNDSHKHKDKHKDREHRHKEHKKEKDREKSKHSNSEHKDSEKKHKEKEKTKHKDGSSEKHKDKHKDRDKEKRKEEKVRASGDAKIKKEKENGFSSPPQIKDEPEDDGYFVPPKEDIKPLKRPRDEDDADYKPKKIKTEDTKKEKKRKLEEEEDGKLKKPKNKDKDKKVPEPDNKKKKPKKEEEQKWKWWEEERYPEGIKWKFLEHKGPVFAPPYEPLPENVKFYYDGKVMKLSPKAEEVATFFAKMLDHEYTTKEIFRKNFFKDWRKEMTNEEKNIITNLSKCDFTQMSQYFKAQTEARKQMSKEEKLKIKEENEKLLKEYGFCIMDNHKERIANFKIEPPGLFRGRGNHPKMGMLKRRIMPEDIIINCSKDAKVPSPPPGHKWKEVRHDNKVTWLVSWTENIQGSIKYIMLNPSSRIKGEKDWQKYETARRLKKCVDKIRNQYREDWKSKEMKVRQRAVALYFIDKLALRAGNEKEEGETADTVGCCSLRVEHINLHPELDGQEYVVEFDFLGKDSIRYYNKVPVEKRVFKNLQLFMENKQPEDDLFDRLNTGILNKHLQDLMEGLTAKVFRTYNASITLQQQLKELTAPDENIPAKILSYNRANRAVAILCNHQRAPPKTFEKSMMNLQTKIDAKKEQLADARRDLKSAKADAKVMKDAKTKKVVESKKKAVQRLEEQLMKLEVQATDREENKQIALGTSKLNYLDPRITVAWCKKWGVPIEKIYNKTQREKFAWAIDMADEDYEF

[11] = system: HeLa; experiment: Antiproliferative activity against human HeLa cells assessed as reduction in colony size after 48 hrs by clonogenic assay; format: functional, cell-based
[12] = system: PC-3; experiment: Cell cycle arrest in human PC3 cells by accumulation at G1 phase at 0.1 uM after 48 hrs by propidium iodide staining-based flow cytometry (Rvb=68.4%); format: functional
[13] = system: PC-3; experiment: Induction of apoptosis in human PC3 cells assessed as gammaH2AX phosphorylation mediated DNA damage at 0.1 uM after 48 hrs by Western blot; format: functional, cell-based
[14] = system: PC-3; experiment: Induction of apoptosis in human PC3 cells assessed as caspase 3 activation at 0.1 uM after 48 hrs by Western blot; format: functional, cell-based
[15] = system: PC-3; experiment: Cell cycle arrest in human PC3 cells by accumulation at G2/M phase at 0.1 uM after 48 hrs by propidium iodide staining-based flow cytometry (Rvb=19.4%); format: functional
[16] = system: HeLa; experiment: Antiproliferative activity against human HeLa cells at 0.3 to 1.0 uM after 48 hrs by MTT assay; format: functional
[17] = system: PC-3; experiment: Cell cycle arrest in human PC3 cells by accumulation at subG1 phase at 0.3 uM after 48 hrs by propidium iodide staining-based flow cytometry (Rvb=0.8%); format: functional
[18] = system: HeLa; experiment: Antiproliferative activity against human HeLa cells assessed as reduction in colony number after 48 hrs by clonogenic assay; format: functional, cell-based
[19] = system: PC-3; experiment: Cell cycle arrest in human PC3 cells by accumulation at G1 phase at 0.3 uM after 48 hrs by propidium iodide staining-based flow cytometry (Rvb=68.4%); format: functional
[20] = system: PC-3; experiment: Cell cycle arrest in human PC3 cells by accumulation at G2/M phase at 0.3 uM after 48 hrs by propidium iodide staining-based flow cytometry (Rvb=19.4%); format: functional
[21] = molecular target: T1, DNA topoisomerase 1 (Homo sapiens); experiment: Inhibition of topoisomerase 1-mediated unwinding of supercoiled plasmid DNA at 10 uM
[22] = system: PC-3; experiment: Cell cycle arrest in human PC3 cells by accumulation at S phase at 0.3 uM after 48 hrs by propidium iodide staining-based flow cytometry (Rvb=11.2%); format: functional

DNA topoisomerase 2-alpha (Homo sapiens), sequence (P11388 whole entry): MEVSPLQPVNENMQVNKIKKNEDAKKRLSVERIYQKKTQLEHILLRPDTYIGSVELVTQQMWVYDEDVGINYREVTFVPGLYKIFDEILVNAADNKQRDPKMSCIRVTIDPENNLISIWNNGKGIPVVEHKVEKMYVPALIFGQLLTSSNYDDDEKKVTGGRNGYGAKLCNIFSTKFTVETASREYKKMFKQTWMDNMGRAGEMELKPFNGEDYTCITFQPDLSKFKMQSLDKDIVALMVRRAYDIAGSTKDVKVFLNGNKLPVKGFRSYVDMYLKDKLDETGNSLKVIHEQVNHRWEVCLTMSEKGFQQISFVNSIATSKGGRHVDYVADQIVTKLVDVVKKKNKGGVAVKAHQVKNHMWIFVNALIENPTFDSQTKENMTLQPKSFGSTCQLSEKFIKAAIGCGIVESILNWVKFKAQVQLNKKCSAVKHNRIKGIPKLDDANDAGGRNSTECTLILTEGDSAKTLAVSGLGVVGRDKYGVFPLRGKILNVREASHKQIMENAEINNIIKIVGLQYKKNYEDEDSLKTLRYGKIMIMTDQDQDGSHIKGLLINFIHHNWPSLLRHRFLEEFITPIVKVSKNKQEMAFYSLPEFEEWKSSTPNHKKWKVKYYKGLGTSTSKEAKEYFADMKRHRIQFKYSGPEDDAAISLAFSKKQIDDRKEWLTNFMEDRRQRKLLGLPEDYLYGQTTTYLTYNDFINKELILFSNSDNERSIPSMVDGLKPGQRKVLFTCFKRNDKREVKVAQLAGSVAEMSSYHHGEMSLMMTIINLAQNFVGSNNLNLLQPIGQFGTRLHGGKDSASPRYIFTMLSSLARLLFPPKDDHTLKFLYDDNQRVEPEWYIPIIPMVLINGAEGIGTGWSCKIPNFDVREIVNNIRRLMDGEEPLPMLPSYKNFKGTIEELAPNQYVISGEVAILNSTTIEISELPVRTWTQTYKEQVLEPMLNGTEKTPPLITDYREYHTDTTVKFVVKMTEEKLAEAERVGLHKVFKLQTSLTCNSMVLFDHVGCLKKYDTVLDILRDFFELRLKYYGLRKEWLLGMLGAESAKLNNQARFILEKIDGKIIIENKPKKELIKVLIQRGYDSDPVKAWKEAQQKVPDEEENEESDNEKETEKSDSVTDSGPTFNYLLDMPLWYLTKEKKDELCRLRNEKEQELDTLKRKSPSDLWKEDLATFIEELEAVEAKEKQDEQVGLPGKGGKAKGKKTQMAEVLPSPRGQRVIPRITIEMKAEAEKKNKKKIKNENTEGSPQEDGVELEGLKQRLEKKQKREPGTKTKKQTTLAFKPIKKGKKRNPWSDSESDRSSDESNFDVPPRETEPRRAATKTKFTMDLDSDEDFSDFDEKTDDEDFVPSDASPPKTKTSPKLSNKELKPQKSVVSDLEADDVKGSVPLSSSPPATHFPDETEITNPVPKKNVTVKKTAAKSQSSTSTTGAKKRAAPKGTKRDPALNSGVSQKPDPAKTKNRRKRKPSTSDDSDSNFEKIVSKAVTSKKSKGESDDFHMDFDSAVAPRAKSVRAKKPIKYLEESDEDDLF

Row | SMILES | IC50 [1] [µM] | IC50 [2] [µM] | IC50 [3] [µM] | IC50 [4] [µM] | IC50 [5] [µM] | also measured
1 | NCCCCCCCNc1nc2ccccc2c2[nH]c3ccccc3c12 | 2.23 | 6.25 | 2.67 | 2.54 | – | –
2 | OCCNCCNc1nc2ccccc2c2[nH]c3ccccc3c12 | 0.7 | 5.81 | 0.74 | 0.72 | 1.74 | –
3 | c1ccc2c(c1)nc(NCCCCCCCNc1nc3ccccc3c3[nH]c4ccccc4c13)c1c3ccccc3[nH]c21 | 1.19 | 6.56 | 1.19 | 1.61 | – | –
4 | COc1ccc(CCNc2nc3ccccc3c3[nH]c4ccccc4c23)cc1OC | 5.39 | 8.98 | 0.52 | 5.83 | 19.3 | –
5 | Fc1ccc2nc(NCCN3CCOCC3)c3c4ccccc4[nH]c3c2c1 | 6.73 | 6.84 | 4.32 | 5.29 | – | –
6 | c1ccc2c(c1)nc(NCCCCCCNc1nc3ccccc3c3[nH]c4ccccc4c13)c1c3ccccc3[nH]c21 | 0.5 | 0.59 | 0.31 | 1.47 | – | –
7 | Oc1ccc(CCNc2nc3ccc(F)cc3c3[nH]c4ccccc4c23)cc1 | 9.19 | 6.32 | 1.33 | 7.78 | – | –
8 | COc1ccc(Nc2nc3ccccc3c3[nH]c4ccccc4c23)cc1 | 10.9 | 21 | 11.4 | 7.78 | – | –
9 | Cl.c1ccc2c(c1)nc(NCCCNCCCNc1nc3ccccc3c3[nH]c4ccccc4c13)c1c3ccccc3[nH]c21 | 0.11 | 0.08 | 0.068 | 0.09 | 1.98 | Activity [6]: 4.5%; Activity [7]: Active; inhibition [8]: Dose-dependent effect; Activity [9]: 30.6%; inhibition [10]: inactive; Activity [11]: Dose-dependent effect; Activity [12]: 40.3%; Activity [13]: Active; Activity [14]: Active; Activity [15]: 24.1%; inhibition (INH) [16]: 95%; Activity [17]: 72.6%; Activity [18]: Dose-dependent effect; Activity [19]: 15.8%; Activity [20]: 8.7%; inhibition [21]: Active; Activity [22]: 2.7%
10 | OCCNc1nc2ccccc2c2[nH]c3ccccc3c12 | 0.99 | 5.65 | 0.62 | 1.02 | 3.15 | –
11 | Oc1ccc(CCNc2nc3ccccc3c3[nH]c4ccccc4c23)cc1O | 10.3 | 15.2 | 3.77 | 6.66 | – | –
12 | CN(CCCNc1nc2ccccc2c2[nH]c3ccccc3c12)CCCNc1nc2ccccc2c2[nH]c3ccccc3c12 | 0.43 | 2.01 | 0.89 | 0.28 | 2.14 | –
13 | Fc1ccc2nc(NCCN3CCNCC3)c3c4ccccc4[nH]c3c2c1 | 6.2 | 12.3 | 5.35 | 2.67 | – | –
14 | COc1cccc2c1C(=O)c1c(O)c3c(c(O)c1C2=O)C[C@@](O)(C(=O)CO)C[C@@H]3O[C@H]1C[C@H](N)[C@H](O)[C@H](C)O1 [DOXORUBICIN] | – | 1.76 | 0.33 | – | – | –
15 | Oc1ccc(CCNc2nc3ccccc3c3[nH]c4ccccc4c23)cc1 | 5.74 | 8.94 | 0.59 | 5.24 | 4.3 | –
16 | Oc1ccccc1Nc1nc2ccccc2c2[nH]c3ccccc3c12 | 17.7 | > 30 | 4.69 | 21.9 | – | –
17 | c1ccc(Nc2nc3ccccc3c3[nH]c4ccccc4c23)cc1 | > 30 | > 30 | > 30 | > 30 | – | –
18 | NCCCCCCNc1nc2ccccc2c2[nH]c3ccccc3c12 | 0.084 | 2.55 | 0.072 | 2.51 | – | –
19 | CN(C)CCNc1nc2ccccc2c2[nH]c3ccccc3c12 | 0.83 | 5.79 | 0.61 | 1.6 | 2.21 | –
20 | Oc1cccc(Nc2nc3ccccc3c3[nH]c4ccccc4c23)c1 | 10.3 | 18.4 | 10.3 | 7.23 | 42.5 | –
21 | c1ccc2c(c1)nc(NCCN1CCOCC1)c1c3ccccc3[nH]c21 | 1.13 | 2.84 | 0.87 | 1.29 | – | –
22 | OCCNCCNc1nc2ccc(F)cc2c2[nH]c3ccccc3c12 | 0.93 | 6.51 | 1.49 | 1.31 | – | –
23 | Oc1ccc(Nc2nc3ccccc3c3[nH]c4ccccc4c23)cc1 | 3.87 | 5.43 | 1.54 | 5.7 | 25.4 | –
24 | NCCNCCNc1nc2ccccc2c2[nH]c3ccccc3c12 | 1.03 | 7.98 | 0.65 | 2.17 | 3.88 | –
25 | CN(C)CCCNc1nc2ccccc2c2[nH]c3ccccc3c12 | 0.5 | 3.65 | 0.85 | 0.79 | 2.18 | –
26 | c1ccc2c(c1)nc(NCCN1CCNCC1)c1c3ccccc3[nH]c21 | 0.53 | 1.77 | 0.68 | 0.38 | 2.6 | –
